Laboratory results taken from US7109296B2, “Human 5-HT3-C protein” (Ortho-McNeil Pharmaceutical, Inc., priority 1999, dated 2006).

Columns and labels:
Type in all cases: cell-based
5-HT3-B and 5-HT3-C = target: T1, 5-HT3-B and 5-HT3-C (Homo sapiens, UniProt O95264+Q8WXA8); experiment: Two-electrode voltage clamp, oocytes co-injected with 5-HT3-B and 5-HT3-C; settings: 5-HT3-B 3.3 ng, 5-HT3-C 3.35 ng/oocyte
T1 construct: Characterization of the Function of Protein Encoded by p5HT3CR in Xenopus oocvtes; expressed in transfected cells; host or cells: Xenopus laevis oocytes co-injected with cRNAs
T1 sequence (O95264 22-441): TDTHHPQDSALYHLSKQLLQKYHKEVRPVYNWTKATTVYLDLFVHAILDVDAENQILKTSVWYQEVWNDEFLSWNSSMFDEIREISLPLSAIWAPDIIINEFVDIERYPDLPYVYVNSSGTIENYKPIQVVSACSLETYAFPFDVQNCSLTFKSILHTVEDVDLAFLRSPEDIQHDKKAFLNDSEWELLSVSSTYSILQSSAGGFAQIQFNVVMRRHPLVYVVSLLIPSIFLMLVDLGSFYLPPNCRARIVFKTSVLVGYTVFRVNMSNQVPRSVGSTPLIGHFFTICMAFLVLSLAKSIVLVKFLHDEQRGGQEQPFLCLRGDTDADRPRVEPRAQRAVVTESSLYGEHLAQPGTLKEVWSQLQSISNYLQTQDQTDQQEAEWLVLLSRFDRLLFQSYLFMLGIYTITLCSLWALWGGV
T1 sequence (Q8WXA8 28-447): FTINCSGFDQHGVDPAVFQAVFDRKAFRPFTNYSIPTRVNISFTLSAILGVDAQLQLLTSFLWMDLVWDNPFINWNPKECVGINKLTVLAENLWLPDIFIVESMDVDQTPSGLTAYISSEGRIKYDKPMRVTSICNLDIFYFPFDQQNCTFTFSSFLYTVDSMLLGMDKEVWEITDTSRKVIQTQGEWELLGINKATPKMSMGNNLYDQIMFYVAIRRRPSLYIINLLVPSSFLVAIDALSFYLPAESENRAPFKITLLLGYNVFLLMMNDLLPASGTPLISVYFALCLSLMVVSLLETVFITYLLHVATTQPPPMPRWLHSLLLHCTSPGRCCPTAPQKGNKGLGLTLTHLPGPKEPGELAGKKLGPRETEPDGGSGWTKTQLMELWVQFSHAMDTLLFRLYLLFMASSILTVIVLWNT
Description: (§1) Characterization of the Function of Protein Encoded by p5HT3CR in Xenopus oocvtes Xenopus laevis oocytes were prepared and injected using standard methods previously described and known in the art (Fraser et al., 1993). Ovarian lobes from adult female Xenopus laevis (Nasco, Fort Atkinson, Wis.) were teased apart, rinsed several times in nominally Ca-free saline containing (in mM): NaCl 82.5, KCl 2.5, MgCl2 1, HEPES 5, adjusted to pH 7.0 with NaOH(OR-2), and gently shaken in OR-2 containing 0.2% collagenase Type 1 (ICN Biomedicals, Aurora, Ohio) for 2–5 hours. When approximately 50% of the follicular layers were removed, Stage V and VI oocytes were selected and rinsed in media consisting of 75% OR-2 and 25% ND-96. The ND-96 contained (in mM): NaCl 100, KCl 2, MgCl2 1, CaCl2 1.8, HEPES 5, Na pyruvate 2.5, gentamicin (50 ug/ml), adjusted to pH 7.0 with NaOH. […] For in vitro transcription, pGEM HE (Liman et al., 1992) containing human 5-HT3-A (Genbank D49394) or 5-HT3-C cDNA was linearized with NheI and transcribed with T7 RNA polymerase (Stratagene) in the presence of the cap analog m7G(5′)ppp(5′)G. The synthesized cRNA was purified with a Sephadex G-50 spin column. […] Control oocytes were injected with 50 nl of water. Oocytes were incubated for 2–14 days in ND-96 before analysis for expression of the human 5-HT3-C. Incubations and collagenase digestion were carried out at room temperature. Injected oocytes were maintained in 48 well cell culture clusters (Costar, Cambridge, Mass.) at 18° C. Whole cell agonist-induced currents were measured 1–14 days after injection with a conventional two-electrode voltage clamp (GeneClamp500, Axon Instruments, Foster City, Calif.) using standard methods previously described and known in the art (Dascal, 1987). The microelectrodes were filled with 3 M KCl, which had resistances of 1 and 2 MΩ. Cells were continuously perfused with ND96 at 10 ml/min at room temperature unless indicated. Membrane voltage was clamped at −70 mV unless indicated.

human 5-HT3-C = target: T2, human 5-HT3-C (Homo sapiens, UniProt Q8WXA8); experiment: Two-electrode voltage clamp, Xenopus oocytes injected with 5-HT3-C cRNA alone; settings: oocytes injected with 33.5 ng 5-HT3-C
T2 construct: Characterization of the Function of Protein Encoded by p5HT3CR in Xenopus oocvtes; expressed in transfected cells; host or cells: Xenopus laevis oocytes injected with in vitro transcribed cRNA (pGEM HE)
T2 sequence (Q8WXA8 28-447): T1 sequence (Q8WXA8 28-447)
Description: as §1

[1] = target: T3, long form of human 5-HT3-A together with 5-HT3-C (Homo sapiens, UniProt P46098+Q8WXA8); experiment: Two-electrode voltage clamp, oocytes co-injected with long form of human 5-HT3-A and 5-HT3-C; settings: 100 μM; n=2
T3 construct: Characterization of the Function of Protein Encoded by p5HT3CR in Xenopus oocvtes; expressed in transfected cells; host or cells: Xenopus laevis oocytes co-injected with cRNAs
T3 sequence (P46098 24-510 isoform P46098-2): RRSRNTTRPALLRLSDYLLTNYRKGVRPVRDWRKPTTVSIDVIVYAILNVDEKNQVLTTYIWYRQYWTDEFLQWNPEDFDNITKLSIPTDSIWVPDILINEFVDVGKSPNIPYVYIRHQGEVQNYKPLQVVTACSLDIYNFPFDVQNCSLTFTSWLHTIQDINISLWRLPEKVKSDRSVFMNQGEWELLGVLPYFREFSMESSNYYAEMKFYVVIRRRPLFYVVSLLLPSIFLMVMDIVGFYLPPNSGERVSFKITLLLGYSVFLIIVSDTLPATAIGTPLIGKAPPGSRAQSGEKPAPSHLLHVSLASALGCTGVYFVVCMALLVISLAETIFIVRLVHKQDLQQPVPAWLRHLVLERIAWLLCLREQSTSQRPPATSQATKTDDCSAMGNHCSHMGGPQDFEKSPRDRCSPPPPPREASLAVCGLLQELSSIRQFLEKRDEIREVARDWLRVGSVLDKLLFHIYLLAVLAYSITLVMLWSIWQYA
T3 sequence (Q8WXA8 28-447): T1 sequence (Q8WXA8 28-447)
Description: Characterization of the Function of Protein Encoded by p5HT3CR in Xenopus oocvtes Xenopus laevis oocytes were prepared and injected using standard methods previously described and known in the art (Fraser et al., 1993). Ovarian lobes from adult female Xenopus laevis (Nasco, Fort Atkinson, Wis.) were teased apart, rinsed several times in nominally Ca-free saline containing (in mM): NaCl 82.5, KCl 2.5, MgCl2 1, HEPES 5, adjusted to pH 7.0 with NaOH(OR-2), and gently shaken in OR-2 containing 0.2% collagenase Type 1 (ICN Biomedicals, Aurora, Ohio) for 2–5 hours. When approximately 50% of the follicular layers were removed, Stage V and VI oocytes were selected and rinsed in media consisting of 75% OR-2 and 25% ND-96. The ND-96 contained (in mM): NaCl 100, KCl 2, MgCl2 1, CaCl2 1.8, HEPES 5, Na pyruvate 2.5, gentamicin (50 ug/ml), adjusted to pH 7.0 with NaOH. […] Whole cell agonist-induced currents were measured 1–14 days after injection with a conventional two-electrode voltage clamp (GeneClamp500, Axon Instruments, Foster City, Calif.) using standard methods previously described and known in the art (Dascal, 1987). […]

[2] = target: T4, 5-HT3-C together with nicotinic ACh receptor a6 subunit (Homo sapiens, UniProt Q15825+Q8WXA8); experiment: Two-electrode voltage clamp, oocytes injected with 5-HT3-C together with nicotinic ACh receptor α6 subunit; settings: 10 μM; eight days after injection; 5-HT3-C 0.67 ng, a6 1 ng/oocyte
T4 construct: Characterization of the Function of Protein Encoded by p5HT3CR in Xenopus oocvtes; expressed in transfected cells; host or cells: Xenopus laevis oocytes injected with cRNA
Description: Characterization of the Function of Protein Encoded by p5HT3CR in Xenopus oocvtes Xenopus laevis oocytes were prepared and injected using standard methods previously described and known in the art (Fraser et al., 1993). Ovarian lobes from adult female Xenopus laevis (Nasco, Fort Atkinson, Wis.) were teased apart, rinsed several times in nominally Ca-free saline containing (in mM): NaCl 82.5, KCl 2.5, MgCl2 1, HEPES 5, adjusted to pH 7.0 with NaOH(OR-2), and gently shaken in OR-2 containing 0.2% collagenase Type 1 (ICN Biomedicals, Aurora, Ohio) for 2–5 hours. When approximately 50% of the follicular layers were removed, Stage V and VI oocytes were selected and rinsed in media consisting of 75% OR-2 and 25% ND-96. The ND-96 contained (in mM): NaCl 100, KCl 2, MgCl2 1, CaCl2 1.8, HEPES 5, Na pyruvate 2.5, gentamicin (50 ug/ml), adjusted to pH 7.0 with NaOH. […] For in vitro transcription, pGEM HE (Liman et al., 1992) containing human 5-HT3-A (Genbank D49394) or 5-HT3-C cDNA was linearized with NheI and transcribed with T7 RNA polymerase (Stratagene) in the presence of the cap analog m7G(5′)ppp(5′)G. The synthesized cRNA was purified with a Sephadex G-50 spin column. Oocytes were injected with 50 nl of the human serotonin 5-HT3-A receptor with or without the 5-HT3-C RNA (0.02 and 0.002–0.2 ng each) or other channel or receptor subunit. Control oocytes were injected with 50 nl of water. Oocytes were incubated for 2–14 days in ND-96 before analysis for expression of the human 5-HT3-C. Incubations and collagenase digestion were carried out at room temperature. Injected oocytes were maintained in 48 well cell culture clusters (Costar, Cambridge, Mass.) at 18° C. Whole cell agonist-induced currents were measured 1–14 days after injection with a conventional two-electrode voltage clamp (GeneClamp500, Axon Instruments, Foster City, Calif.) using standard methods previously described and known in the art (Dascal, 1987). The microelectrodes were filled with 3 M KCl, which had resistances of 1 and 2 MΩ. […]

[3] = target: T5, nicotinic ACh α3β4 receptors (Homo sapiens, UniProt P30926+P32297); experiment: Two-electrode voltage clamp, oocytes expressing nicotinic ACh α3β4 receptors
T5 construct: expressed in transfected cells; host or cells: Xenopus laevis oocytes injected with cRNA

[4] = target: T6, α3β4 receptors together with 5-HT3-C (Homo sapiens, UniProt P30926+P32297); experiment: Two-electrode voltage clamp, oocytes expressing nicotinic ACh α3β4 receptors together with 5-HT3-C
T6 construct: expressed in transfected cells; host or cells: Xenopus laevis oocytes co-injected with cRNAs
T6 sequence (P32297 32-505): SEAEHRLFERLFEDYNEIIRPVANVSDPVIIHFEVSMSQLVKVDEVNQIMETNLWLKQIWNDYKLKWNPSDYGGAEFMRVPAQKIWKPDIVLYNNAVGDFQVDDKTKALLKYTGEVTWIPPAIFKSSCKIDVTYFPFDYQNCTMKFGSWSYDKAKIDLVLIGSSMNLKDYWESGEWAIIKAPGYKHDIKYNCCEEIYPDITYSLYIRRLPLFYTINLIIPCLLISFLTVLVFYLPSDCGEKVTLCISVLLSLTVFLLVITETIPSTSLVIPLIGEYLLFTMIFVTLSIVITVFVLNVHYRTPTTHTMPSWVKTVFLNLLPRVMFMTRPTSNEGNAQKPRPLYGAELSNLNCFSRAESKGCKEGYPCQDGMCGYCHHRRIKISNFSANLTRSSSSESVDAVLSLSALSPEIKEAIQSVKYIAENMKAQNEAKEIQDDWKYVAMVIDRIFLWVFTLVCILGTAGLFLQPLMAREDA
T6 sequence (P30926 22-498): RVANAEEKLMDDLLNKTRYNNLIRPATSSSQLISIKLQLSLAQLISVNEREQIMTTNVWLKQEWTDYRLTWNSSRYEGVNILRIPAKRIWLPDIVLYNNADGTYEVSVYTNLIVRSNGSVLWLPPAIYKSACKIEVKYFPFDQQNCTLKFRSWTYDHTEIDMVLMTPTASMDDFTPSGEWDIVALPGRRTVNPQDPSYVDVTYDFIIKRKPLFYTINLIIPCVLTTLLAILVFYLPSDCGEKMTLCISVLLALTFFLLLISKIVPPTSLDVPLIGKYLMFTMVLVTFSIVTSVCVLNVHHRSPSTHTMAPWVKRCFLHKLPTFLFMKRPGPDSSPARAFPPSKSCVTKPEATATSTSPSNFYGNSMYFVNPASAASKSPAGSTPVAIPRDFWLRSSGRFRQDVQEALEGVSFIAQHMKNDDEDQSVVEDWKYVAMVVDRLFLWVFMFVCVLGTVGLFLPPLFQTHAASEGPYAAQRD

T4 sequence (Q15825 26-494, one chain of several): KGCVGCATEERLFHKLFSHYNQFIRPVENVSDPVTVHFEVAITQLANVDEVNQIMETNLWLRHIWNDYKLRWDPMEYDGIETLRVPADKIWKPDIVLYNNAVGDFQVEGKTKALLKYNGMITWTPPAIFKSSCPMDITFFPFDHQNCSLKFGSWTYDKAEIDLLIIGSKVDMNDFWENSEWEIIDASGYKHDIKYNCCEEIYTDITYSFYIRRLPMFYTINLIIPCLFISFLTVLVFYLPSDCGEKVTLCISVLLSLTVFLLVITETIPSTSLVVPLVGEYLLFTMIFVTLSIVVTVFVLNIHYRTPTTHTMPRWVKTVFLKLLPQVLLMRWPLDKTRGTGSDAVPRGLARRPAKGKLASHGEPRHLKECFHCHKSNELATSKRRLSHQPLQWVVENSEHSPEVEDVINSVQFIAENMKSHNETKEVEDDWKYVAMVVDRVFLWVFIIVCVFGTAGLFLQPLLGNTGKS
T5 sequence (P32297 32-505): as the sequence (P32297 32-505) above
T5 sequence (P30926 22-498): as the sequence (P30926 22-498) above

Compound: CNCCc1c[nH]c2ccc(O)cc12 [N-ω-methyl-5-HT]
- responsiveness of oocytes to agonist (5-HT3-B and 5-HT3-C; 100 μM): unresponsive

Compound: NC(N)=NC(N)=Nc1ccccc1 [1-PBG]
- effect of agonist (agonist-induced current) (human 5-HT3-C; 100 μM): no effect
- effect of agonist (agonist-induced current) (human 5-HT3-C; 500 μM): no effect
- sensitivity of oocytes to agonist [1]: insensitive

Compound: Clc1ccc(C2CC3CCC2N3)cn1 (stereo not shown) [epibatidine]
- responsiveness of oocytes to agonist [2]: not responsive
- Peak currents [3]: −6.93+/−1.45 nA
- Peak currents [4]: 6.49+/−0.69 nA
- effect of 5-HT3-C co-injection on epibatidine-activated currents [4]: no effect
- effect of 5-HT3-C on t80, time to peak and degree of desensitization to a second epibatidine stimulus [4]: no effect
- responsiveness of oocytes to agonist (5-HT3-B and 5-HT3-C; 10 μM): unresponsive
